According to the METLIN SMRT retention time set (Domingo-Almenara et al. 2019):

Assay: gradient 5% acetonitrile 3 min, to 50% in 2 min, to 85% in 15 min, held 3 min, 100 µL/min
Details: column: Zorbax Extend-C18 2.1 x 50 mm; eluents: water / acetonitrile, 0.1% formic acid
Procedure, shortened: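 Retention times come from adduct peaks that were picked computationally and then checked by hand. The standards, pure and pooled in mixtures of ~100 molecules, were run on a Zorbax Extend-C18 column (2.1 × 50 mm, 1.8 μm) at 100 μL/min with water and acetonitrile, each with 0.1% formic acid. Detection was by quadrupole time-of-flight mass spectrometry in positive and negative ionization mode, with a dead volume of 40 μL and a dwell volume of 900 μL.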

Row | Structure (SMILES) | RP-LC retention time
1 | COc1ccc(-n2c(=O)c(C(=O)Nc3ccc(OC)c(F)c3)c(O)c3cccnc32)cc1 | 1200 s
2 | CCCCN1C(=O)C(CC(=O)NCCC)Sc2ncccc21 (stereo not drawn) | 750 s
3 | CS(=O)(=O)N1CCCC(C(=O)N(Cc2ccccc2)Cc2ccccc2)C1 (stereo not drawn) | 886 s
4 | CCCCN1C(=O)C(NC(=O)c2cccc(OC)c2)(C(F)(F)F)C(C(C)=O)=C1C (stereo not drawn) | 916 s
5 | CCCS(=O)(=O)N1CCOc2ccc(NC(=O)NCC)cc2C1 | 696 s
6 | CC(C)c1ccc(Nc2c(-c3ccc(O)cc3)nc3ncccn23)cc1 | 713 s
7 | CCN1c2ccc(F)cc2C(=O)NC12CCN(C(=O)Cc1ccc(Cl)cc1)CC2 | 848 s
8 | COc1cc(C(=O)N2CCC3(CC2)NC(=O)c2cc(F)ccc2N3C)cc(OC)c1OC | 655 s
9 | O=C(CSc1cccc2cccnc12)NCCc1ccc(Cl)cc1 | 786 s
10 | CCOC(=O)CCc1c(C)nn(-c2cc(N3CCCC3)ncn2)c1C | 868 s
11 | COCCOC1CCC12CCN(C(=O)c1cc(C)oc1C)CC2 (stereo not drawn) | 811 s
12 | Cc1ccc(NC(=O)Nc2nccn(-c3ccc(F)cc3)c2=O)cc1C | 1020 s
13 | CC(C)NC(=O)C1CCN(S(=O)(=O)c2cc(C(=O)N3CCCCCC3)cs2)CC1 | 767 s
14 | O=C(CCc1c[nH]c2ccccc12)N1[C@H]2CC[C@@H]1c1cnc(-c3ccccc3)nc1C2 | 884 s
15 | CCOCCCNC(=O)c1c(N2CCCC2=O)c2cc(OC)ccc2n1CC | 761 s
16 | CC(CC(=O)N1CCN(c2ccccc2)CC1)S(=O)(=O)c1ccc2c(c1)CCN2C(=O)C1CC1 (stereo not drawn) | 866 s
17 | O=C(c1cc2c(s1)CCCC2)N1CCc2[nH]cnc2C12CCCCC2 | 692 s
18 | CCOC(=O)c1cnc2nc(C)ccc2c1Nc1ccc(F)cc1F | 716 s
19 | Cc1nc2ccc3nc(NC(=O)C4CCN(S(C)(=O)=O)CC4)sc3c2s1 | 709 s
20 | COCCNC(=O)Nc1nc(-c2ccccc2)c(C(C)=O)s1 | 685 s
21 | CCN(CC)c1ccc(NC(=O)c2nc3nc(C)cc(C(F)F)n3n2)cc1 | 598 s
22 | CSc1ncc(Cl)c(C(=O)NCc2ccco2)n1 | 753 s
23 | CCCn1c(CCNC(=O)c2ccc(OC)cc2)nc2cccnc21 | 662 s
24 | COc1ccc(NC(=O)N2CCC(N3C[C@H]4C[C@H](C3)[C@H]3CCCC(=O)N3C4)CC2)cc1OC | 611 s
25 | CCOc1ccc(CNC(=O)c2cc(S(=O)(=O)N3CCCCC3)c(C)n2C)cc1 | 1020 s

Row | Structure (SMILES) | RP-LC retention time
26 | COc1ccc(S(=O)(=O)N2CCCC(C(=O)NCCCOC(C)C)C2)cc1C (stereo not drawn) | 877 s
27 | COc1ccc(C2(C(=O)N3CCC4(CC3)c3nccn3-c3ccccc3CN4C)CC2)cc1 | 630 s
28 | O=C(NCCn1ncccc1=O)c1c(F)cccc1F | 584 s
29 | CCC(=O)N1c2ccccc2NC2=C(C(=O)CC(C)(C)C2)C1c1ccc(C(=O)OC)cc1 (stereo not drawn) | 749 s
30 | O=C(Nc1cccc(Cl)c1F)N1CCc2nc[nH]c2C1 | 589 s
31 | O=C1COc2cc(S(=O)(=O)N3CCCC3C(=O)Nc3ccc4c(c3)OCCO4)c(Cl)cc2N1 (stereo not drawn) | 734 s
32 | COCCn1cc(C(=O)Nc2ccc(N(C)C)cc2)c2nn(-c3ccccc3)c(=O)c-2c1 | 710 s
33 | COc1cc(NC(=O)CN2CCN(c3ccccn3)CC2)cc(OC)c1 | 587 s
34 | COC(=O)c1cn(Cc2cc(C)ccc2C)nc1S(=O)(=O)N(C)c1ccc(C)cc1 | 1060 s
35 | CS(=O)(=O)N1CCCN(C(=O)c2ccccc2)CC1 | 638 s
36 | CCn1c(N2CCCC(C(=O)NCc3ccc(F)cc3)C2)cc(=O)n(C)c1=O (stereo not drawn) | 776 s
37 | CCC(C)(C)NC(=O)CCNc1c(-c2ccc(F)cc2)nc2cnccn12 | 754 s
38 | CCN(CC)CCNC(=O)CCc1nc2c(C)nn(-c3ccccc3)c2n(C)c1=O | 585 s
39 | Cn1c(SCC(=O)N2CCC(C(N)=O)CC2)nnc1-c1sc2ncccc2c1N | 577 s
40 | CCNC(=O)Cc1nnc(-c2ccc(C)cc2)o1 | 664 s
41 | O=C1CC(c2ccccc2)N(C2CCC2)CCCCCN1 (stereo not drawn) | 595 s
42 | COCCn1c(Cc2cccn2C)nnc1SCC(=O)N1CCCc2ccccc21 | 809 s
43 | CN(C)c1ncccc1NC(=O)Nc1ccccc1F | 601 s
44 | Cc1cc(C)cc(NC(=O)C2CCCN(S(=O)(=O)c3cn(C(C)C)cn3)C2)c1 (stereo not drawn) | 876 s
45 | COc1cc(CNC(=O)c2ccc(Cc3c(C)noc3C)o2)cc(OC)c1OC | 744 s
46 | O=c1n(Cc2ccc(F)cc2Cl)nc2ccc(S(=O)(=O)N3CCCC3)cn12 | 922 s
47 | Cc1noc(-c2ccc(OC3CN(S(=O)(=O)c4c(C)noc4C)C3)cc2)n1 | 943 s
48 | CCCC(=O)N1CCCn2nc(-c3ccncc3)cc2C1 | 577 s
49 | Nc1nc(-c2ccc(S(=O)(=O)N3CCOCC3)cc2)cs1 | 620 s

More lines, now with the values ahead:

Row | RP-LC retention time | Structure (SMILES)
50 | 985 s | O=c1[nH]nc(-c2cc(-c3ccccc3)nc3ccccc23)o1
51 | 904 s | Cn1c(=O)c(N2CCC(NC(=O)Nc3ccccc3Cl)CC2)nc2ccccc21
52 | 673 s | Cc1cccc(Nc2nc3ccncc3n(Cc3ccccc3)c2=O)c1
53 | 751 s | CCOc1ccc(NC(=O)NCC(c2cccnc2)c2cn(CC)c3ccccc23)cc1 (stereo not drawn)
54 | 694 s | COc1ccc(NC(=O)Cn2c(=O)c3cc(C)nn3c3ncccc32)c(OC)c1
55 | 655 s | O=C(c1cccc(Nc2nc3ccccc3n3nnnc23)c1)N1CCN(c2ccccn2)CC1
56 | 657 s | CN1CCCn2nc(C3CCN(C(=O)NCCc4ccccc4)CC3)cc2C1=O
57 | 716 s | Cc1nn(-c2cc(N(C)C)ncn2)c(C)c1CCC(=O)NCc1ccccc1
58 | 860 s | CCc1ccc(CNC(=O)CN2CCc3ccccc3C2C(=O)N2CCCC2)cc1 (stereo not drawn)
59 | 1060 s | COc1ccc(-c2ncc3c(n2)CCN(S(=O)(=O)c2ccc(F)c(F)c2)C3)cc1
60 | 881 s | Cc1ccc(F)cc1NC(=O)c1cnc2c(c1)c(=O)n(C)c(=O)n2-c1ccccc1
61 | 869 s | Cc1oc(-c2cccc(Cl)c2)nc1Cn1nnc(-c2nc(-c3ccc(F)cc3)no2)c1C
62 | 976 s | CCc1ccc(C2=C(C)C(N3CCCN(C(=O)C4CCCCC4)CC3)=NS2(=O)=O)cc1
63 | 840 s | COc1cccc(S(=O)(=O)N2C[C@@H]3C[C@H]2C[C@@H]3NC(=O)c2ccccc2)c1
64 | 772 s | COC(=O)c1ccccc1NC(=O)CCc1c(-c2ccc(Cl)cc2)nc2ccccn12
65 | 722 s | Cc1ccccc1CNC(=O)CCc1c(-c2ccc(Br)cc2)nc2ccccn12
66 | 778 s | O=C(Cn1c(=O)c2cc(C3CC3)nn2c2ncccc21)Nc1cccc(F)c1
67 | 1080 s | CCn1cc2c3c(cccc31)CN(C(=O)Nc1cc(C)ccc1OC)CC2
68 | 1230 s | Fc1ccc(C2Cn3nnc(-c4nc(-c5ccc(Cl)cc5)no4)c3CO2)cc1 (stereo not drawn)
69 | 1000 s | CCOc1ccccc1NC(=O)CN1C(=O)CCc2cc(Br)ccc21

Row | RP-LC retention time | Structure (SMILES)
70 | 714 s | CSc1ccc(CNC(=O)CCc2c(-c3ccc(Br)cc3)nc3ccccn23)cc1
71 | 880 s | O=C1CC(C(=O)N2CCc3ccccc32)CN1CCc1c[nH]c2ccc(Cl)cc12 (stereo not drawn)
72 | 794 s | Cc1cccc(C(=O)N2CCC3(C2)C(=O)N(C)c2ccccc23)c1 (stereo not drawn)
73 | 759 s | COc1ccc(N2CC(c3nnc(NC(=O)c4ccc(Br)cc4)o3)CC2=O)cc1 (stereo not drawn)
74 | 818 s | O=C(Cn1c(=O)c2cccn2c2ccc(F)cc21)NCc1ccc(F)cc1
75 | 1090 s | COc1cc(OC)cc(-c2nc(-c3cn(-c4cccc(F)c4)nn3)no2)c1
76 | 683 s | O=c1c2cc(-c3ccc(F)cc3)nn2ccn1Cc1noc(CN2CCCCCC2)n1
77 | 906 s | Cc1cccc(-n2c(=O)c3c(cc(C)n3C)n(CC(=O)Nc3c(C)cccc3C)c2=O)c1
78 | 1180 s | Cc1cccc(-c2noc(-c3nn(CC(=O)NC4CCCC4)c4ccccc34)n2)c1
79 | 669 s | Cn1cc(CC(=O)NCc2ccc(F)cc2)c2cccnc21
80 | 933 s | Cc1ccc(-c2noc(-c3ccccc3S(=O)(=O)Nc3ccc(S(N)(=O)=O)cc3)n2)cc1
81 | 699 s | CC(C)c1ccc2c(c1)-c1ccccc1S(=O)(=O)N2CC(=O)NCc1ccncc1
82 | 733 s | O=C(Nc1ccc(-n2cnc(C(=O)N3CCc4ccccc4C3)c2)nc1)C1CC1
83 | 804 s | COc1ccc(NC(=O)N2CCc3nc(-c4ccccc4)ncc3C2)cc1OC
84 | 831 s | COc1ccc(NC(=O)Cn2c(=O)nc(N3CCC(C)CC3)c3ccccc32)c(OC)c1
85 | 837 s | O=S(=O)(Cc1ccccc1F)N1CCC[C@H]1c1nc(-c2ccc(F)cc2)n[nH]1
86 | 846 s | CC(C)Cn1nc(CNC(=O)c2ccoc2)c2ccccc21
87 | 763 s | COc1cccc(S(=O)(=O)N2CCC(N3CCN(Cc4ccccc4)C(=O)C3=O)CC2)c1
88 | 609 s | O=C(c1cccc(N2CCNC(c3ccccc3)C2)n1)N1CCCN(c2ncccn2)CC1 (stereo not drawn)
